# Measurements taken from patent US8895559B2, “Quinoxalines derivatives and pharmaceutical compositions and kits” (Merck Patent GmbH, priority 2010, dated 2014).
# Tested on: PI3K
# Assay: Cellular testing of PI3K inhibitors: P-S473-PKB Luminex assay in PC3 cells
# Assay type: cell-based
# Settings: PI3K-dependent phosphorylation of PKB at Serin 473 in PC3 cells
# Procedure: Description of the Method for the Cellular Testing of PI3K Inhibitors
# The cellular assay for determination of the P-S473-PKB level is carried out as a Luminex assay in 96-well format in PC3 cells.
# PC3 cells are sown out with 20,000 cells per well in 100 μl medium (45% RPMI1460/45% Ham's F12/10% FCS) and incubated on the following day for 30 min with a serial dilution of the test substance (7 concentrations) under serum-free conditions. […] The lysates are incubated overnight at 4° C. with shaking with Luminex beads to which an anti-total PKB antibody is coupled. The detection is carried out on the following day by addition of a P-S473-PKB antibody and a species-specific PE-labelled secondary antibody. The detection of P-S473-PKB is carried out by measurement in a Luminex 100 instrument by determination of 100 events per cavity in a measurement time of 60 sec. […] The values of the preparations treated with test substance are calculated from this as percent of control, and IC50 values are determined by means of RS1.
row,IC50 [nM],Compound
1,53,COc1cc(Nc2nc3ccccc3nc2NS(=O)(=O)C2CCS(=O)(=O)C2)c(OCCCO)c(OC)c1 (stereo not shown) [drawing 157]
2,1.4,COc1cc(Nc2nc3ccccc3nc2NS(=O)(=O)c2ccc(F)cc2)c(OCCOCCO)c(OC)c1 [drawing 159]
3,1100,COc1ccc(CCCO)c(Nc2nc3ccccc3nc2NS(=O)(=O)c2cn(C)c(CN(C)C)n2)c1 [reference compound]
4,985,COc1cc(Nc2nc3ccccc3nc2NS(=O)(=O)c2cn(C)cn2)cc(OC)c1 [reference compound]
5,2600,COc1ccc(CCCS(C)(=O)=O)c(Nc2nc3ccccc3nc2NS(=O)(=O)c2cn(C)cn2)c1 [reference compound]
6,970,COc1ccc(CCCO)c(Nc2nc3ccccc3nc2NS(=O)(=O)C2CCS(=O)(=O)C2)c1 (stereo not shown) [reference compound]
7,290,COc1ccc(CCO)c(Nc2nc3ccccc3nc2NS(=O)(=O)c2ccc(F)cc2)c1 [reference compound]
8,4900,COc1ccc(CCO)c(Nc2nc3ccccc3nc2NS(C)(=O)=O)c1 [reference compound]

# Same assay, conditions: PI3 kinase inhibition, cell
row,Compound,IC50 [nM]
1,CCc1cc(OC)cc(Nc2nc3ccccc3nc2NS(=O)(=O)c2cn(C)cn2)c1OC [Compound A17],> 10000
2,"COc1cc(Nc2nc3ccccc3nc2NS(=O)(=O)c2ccn(CCN(C)C)n2)c(OCCC(C)O)c(OC)c1 (stereo not shown) [Compound A129, 1-(2-Dimethylaminoethyl)-1H-pyrazole-3-sulfonic acid {3-[2-(3-hydroxybutoxy)-3,5-dimethoxy-phenylamino]quinoxalin-2-yl} amide]",1 to 100
3,COc1cc(Nc2nc3ccccc3nc2NS(=O)(=O)c2ccc(C(=O)N(C)C)cc2)c2occc2c1 [Compound A15],> 10000
4,COc1cc(Nc2nc3ccccc3nc2NS(=O)(=O)c2ccc(C#N)cc2)c(CCCN(C)C)c(OC)c1 [Compound A2],100 to 10000
5,COc1cc(Nc2nc3ccccc3nc2NS(=O)(=O)c2cn(C)cn2)c2c(c1)OCCO2 [Compound A10],100 to 10000
6,COc1cc(Nc2nc3ccccc3nc2NS(=O)(=O)c2cn(C)cn2)c(CCCCO)c(OC)c1 [Compound A7],100 to 10000
7,COc1cc(Nc2nc3ccccc3nc2NS(=O)(=O)c2cn(C)c(CN(C)C)n2)c(OC)c(OC)c1 [Compound A31],100 to 10000
8,CCN(CC)Cc1nc(S(=O)(=O)Nc2nc3ccccc3nc2Nc2cc(OC)cc(OC)c2OCCC(C)O)cn1C (stereo not shown) [Compound A123],100 to 10000
9,COc1cc(Nc2nc3ccccc3nc2NS(=O)(=O)c2cn(C)cn2)c(OCC(C)CO)c(OC)c1 (stereo not shown) [Compound A32],100 to 10000
10,COc1cc(Nc2nc3ccccc3nc2NS(=O)(=O)c2cn(C)cn2)c2c(c1)OCC(CO)O2 (stereo not shown) [Compound A127],100 to 10000
11,COc1cc(Nc2nc3ccccc3nc2NS(=O)(=O)c2ccccc2OC)c(OCCCO)c(OC)c1 [Compound A26],100 to 10000
12,"COc1cc(Nc2nc3ccccc3nc2NS(=O)(=O)c2cn(C)cn2)c2occc2c1 [Compound A16, 1-Methyl-1H-imidazole-4-sulfonic acid [3-(5-methoxybenzofuran-7-ylamino)quinoxalin-2-yl]amide]",> 10000
13,COc1cc(Nc2nc3ccccc3nc2NS(=O)(=O)c2cn(C)cn2)c(OCCOCCO)c(OC)c1 [Compound A81],100 to 10000
14,CCN(CC)Cc1nc(S(=O)(=O)Nc2nc3ccccc3nc2Nc2cc(OC)cc(OC)c2OCCCO)cn1C [Compound A126],100 to 10000
15,COc1cc(Nc2nc3ccccc3nc2NS(=O)(=O)c2ccncc2)c(OCCCO)c(OC)c1 [Compound A21],> 10000
16,COc1cc(Nc2nc3ccccc3nc2NS(=O)(=O)c2ccc(C(=O)NCC(F)(F)F)cc2)c(OCCCO)c(OC)c1 [Compound A95],100 to 10000
17,COc1cc(Nc2nc3ccccc3nc2NS(=O)(=O)c2cn(C)cn2)c(OCC[S+](C)[O-])c(OC)c1 (stereo not shown) [Compound A52],100 to 10000
18,CCOC(=O)Nc1ccc(S(=O)(=O)Nc2nc3ccccc3nc2Nc2cc(OC)cc(OC)c2OCCCO)cc1 [Compound A34],100 to 10000

# Next, values leading:
row,IC50 [nM],Compound
1,1 to 100,COc1cc(Nc2nc3ccccc3nc2NS(=O)(=O)c2ccn(C)n2)c(CCCCO)c(OC)c1 [Compound A117]
2,1 to 100,COc1cc(Nc2nc3ccccc3nc2NS(C)(=O)=O)c(OCCC(C)O)c(OC)c1 (stereo not shown) [Compound A99]
3,100 to 10000,COc1cc(Nc2nc3ccccc3nc2NS(=O)(=O)c2cccc(C(=O)N3CC(F)(F)C3)c2)c(OCCCO)c(OC)c1 [Compound A107]
4,1 to 100,COc1cc(Nc2nc3ccccc3nc2NS(=O)(=O)c2ccc(C#N)cc2)c(OCC(O)CO)c(OC)c1 (stereo not shown) [Compound A74]
5,100 to 10000,COc1cc(Nc2nc3ccccc3nc2NS(=O)(=O)c2ccn(C)n2)c(OCCOCCO)c(OC)c1 [Compound A112]
6,100 to 10000,"COc1cc(Nc2nc3ccccc3nc2NS(=O)(=O)c2ccc(CN3CCC3)cc2)c(OCCCO)c(OC)c1 [Compound A111, 4-Azetidin-1-ylmethyl-N-{3-[2-(3-hydroxypropoxy)-3,5-dimethoxyphenylamino]-quinoxalin-2-yl}-benzenesulfonamide]"
7,100 to 10000,COc1cc(Nc2nc3ccccc3nc2NS(=O)(=O)C(F)F)c(OCCCO)c(OC)c1 [Compound A114]
8,100 to 10000,COc1cc(Nc2nc3ccccc3nc2NS(=O)(=O)c2cccc(C(=O)NCC(F)(F)F)c2)c(OCCCO)c(OC)c1 [Compound A105]
9,1 to 100,COc1cc(Nc2nc3ccccc3nc2NS(=O)(=O)c2cccs2)c(OCCOCCO)c(OC)c1 [Compound A64]
10,1 to 100,COc1cc(Nc2nc3ccccc3nc2NS(=O)(=O)c2cncs2)c(OCCCO)c(OC)c1 [Compound A22]
11,100 to 10000,COc1cc(Nc2nc3ccccc3nc2NS(=O)(=O)c2cnn(CC(=O)N(C)C)c2)c(OCCCO)c(OC)c1 [Compound A27]
12,100 to 10000,COc1cc(Nc2nc3ccccc3nc2NS(=O)(=O)c2ccc(F)c(F)c2)c(OCCOCCO)c(OC)c1 [Compound A73]
13,1 to 100,COc1cc(Nc2nc3ccccc3nc2NS(=O)(=O)c2ccc(NC(C)=O)cc2)c(OCCCO)c(OC)c1 [Compound A50]
14,1 to 100,COc1cc(Nc2nc3ccccc3nc2NS(=O)(=O)c2cnn(C)c2)c(OCCCO)c(OC)c1 [Compound A44]
15,1 to 100,COc1cc(Nc2nc3ccccc3nc2NS(=O)(=O)c2cnn(C(F)F)c2)c(OCCCO)c(OC)c1 [Compound A29]
16,100 to 10000,COc1cc(C)c(OC)c(Nc2nc3ccccc3nc2NS(=O)(=O)c2cn(C)cn2)c1 [Compound A11]
17,100 to 10000,COc1cc2c(c(Nc3nc4ccccc4nc3NS(=O)(=O)c3cn(C)cn3)c1)OC(CO)C2 (stereo not shown) [Compound A5]
18,1 to 100,"COc1cc(Nc2nc3ccccc3nc2NS(=O)(=O)c2cccc(CN(C)C)c2)c(OCCCO)c(OC)c1 [Compound A109, 3-Dimethylaminomethyl-N-{3-[2-(3-hydroxy-propoxy)-3,5-dimethoxyphenylamino]quinoxalin-2-yl}benzenesulfonamide]"

row,IC50 [nM],Compound
1,100 to 10000,COc1cc(Nc2nc3ccccc3nc2NS(=O)(=O)c2cn(C)cn2)c2c(c1)OC(CO)CO2 (stereo not shown) [Compound A124]
2,1 to 100,COc1cc(Nc2nc3ccccc3nc2NS(=O)(=O)c2ccccc2)c(OCCCO)c(OC)c1 [Compound A30]
3,100 to 10000,COc1cc(Nc2nc3ccccc3nc2NS(C)(=O)=O)c(OCCCO)c(OC)c1 [Compound A25]
4,100 to 10000,COc1cc(Nc2nc3ccccc3nc2NS(=O)(=O)c2cccc(C(=O)N(C)C)c2)c(OCCCO)c(OC)c1 [Compound A97]
5,1 to 100,COc1cc(Nc2nc3ccccc3nc2NS(=O)(=O)c2cn(C)c(CN(C)C)n2)c(OCCC(C)O)c(OC)c1 (stereo not shown) [Compound A28]
6,1 to 100,COc1cc(Nc2nc3ccccc3nc2NS(=O)(=O)c2ccc(C#N)cc2)c(OC)c(OC)c1 [Compound A91]
7,1 to 100,"COc1cc(Nc2nc3ccccc3nc2NS(=O)(=O)c2cccc(CN3CCC3)c2)c(OCCCO)c(OC)c1 [Compound A116, 3-Azetidin-1-ylmethyl-N-{3-[2-(3-hydroxypropoxy)-3,5-dimethoxyphenylamino]-quinoxalin-2-yl}-benzenesulfonamide]"
8,1 to 100,"COc1cc(Nc2nc3ccccc3nc2NS(=O)(=O)c2ccn(CCN(C)C)n2)c(OCCCO)c(OC)c1 [Compound A130, 1-(2-Dimethylaminoethyl)-1H-pyrazole-3-sulfonic acid {3-[2-(3-hydroxypropoxy)-3,5-dimethoxy-phenylamino]quinoxalin-2-yl} amide]"
9,1 to 100,COc1cc(Nc2nc3ccccc3nc2NS(=O)(=O)c2ccc(C#N)cc2)c(CCCN2CCS(=O)(=O)CC2)c(OC)c1 [Compound A3]
10,1 to 100,COc1cc(Nc2nc3ccccc3nc2NS(=O)(=O)CCCS(C)(=O)=O)c(OCCCO)c(OC)c1 [Compound A36]
11,1 to 100,COc1cc(Nc2nc3ccccc3nc2NS(=O)(=O)c2ccc(F)cc2)c(OCCOCCO)c(OC)c1 [Compound A53]
12,1 to 100,COc1cc(Nc2nc3ccccc3nc2NS(=O)(=O)c2ccc(C#N)cc2)c(OCCN(C)CCO)c(OC)c1 [Compound A78]
13,1 to 100,COc1cc(Nc2nc3ccccc3nc2NS(=O)(=O)c2cn(C)cn2)c(OCCO)c(OC)c1 [Compound A89]
14,1 to 100,COc1cc(Nc2nc3ccccc3nc2NS(=O)(=O)c2ccc(C#N)s2)c(OCCOCCO)c(OC)c1 [Compound A59]
15,1 to 100,COc1cc(Nc2nc3ccccc3nc2NS(=O)(=O)c2cn(C)cn2)c(OCCCO)c(OC)c1 [Compound A86]
16,1 to 100,COc1cc(Nc2nc3ccccc3nc2NS(=O)(=O)c2cccs2)c(OCCN(C)CCO)c(OC)c1 [Compound A60]
17,1 to 100,COc1cc(Nc2nc3ccccc3nc2NS(=O)(=O)c2ccc(C(=O)N3CCC3)cc2)c(OCCCO)c(OC)c1 [Compound A102]
